Assay results taken from patent US12649725B2 (Worcester Polytechnic Institute, priority 2020, dated 2026).
Where two headings read alike, the source gives them in different places.

Legend:
[1] = Cytotoxicity assay (CellTiter-Glo) in Jurkat cells; format: cell-based; details: human; Jurkat cells, 48 hours post drug incubation, cell viability by CellTiter-Glo, triplicate; read-out: Chromenone cytotoxicity IC50, Jurkat
Protocol: (§1) Jurkat and L5178Y cells were cultured in RPMI 1640 (ATCC), HL60 cells were cultured in Iscove's Modified Dulbecco's Medium (IMDM, ATCC), KB and MCF7 cells were cultured in Eagles Minimum Essential Medium (EMEM, ATCC), and SKOV3 cells in McCoy's 5a Medium (ATCC) supplemented with 10% Heat Inactivated Fetal Bovine Serum (FBS), and Penicillin and Streptomycin (P/S) at 37° C. in a 5% CO2 incubator.
(§2) Proliferating cells were seeded at approximately 20×10^3 cells per 50 μL per well into 96 well plates using a MultiFlo FX multi-mode dispenser (BioTek). On reaching ≈40% cell density, the cells were then incubated with varying concentrations (195 nM to 200 μM final) of test samples using a Biomek FXP Automated Workstation (Beckman Coulter). 48 hours post drug incubation, cell viability was determined using Promega's CellTiter-Glo Luminescent Cell Viability Assay according to the manufacturer's protocol on a plate reader (EnVision from PerkinElmer) in Luminescence mode. In each experiment, each unique condition (i.e., different sample type and concentration) was tested in triplicate. […] IC50 values for each treatment were calculated using Graph-Pad Prism 8.0 Software.

[2] = Cytotoxicity assay (CellTiter-Glo) in KB cells; format: cell-based; details: human, 48 hours post drug incubation, cell viability by CellTiter-Glo, triplicate, read-out: Chromenone cytotoxicity IC50, KB
Protocol: as §1
(§3) Proliferating cells were seeded at approximately 20×10^3 cells per 50 μL per well into 96 well plates using a MultiFlo FX multi-mode dispenser (BioTek). On reaching ≈40% cell density, the cells were then incubated with varying concentrations (195 nM to 200 μM final) of test samples using a Biomek FXP Automated Workstation (Beckman Coulter). 48 hours post drug incubation, cell viability was determined using Promega's CellTiter-Glo Luminescent Cell Viability Assay according to the manufacturer's protocol on a plate reader (EnVision from PerkinElmer) in Luminescence mode. In each experiment, each unique condition (i.e., different sample type and concentration) was tested in triplicate. The percentage of test sample induced toxicity was calculated with respect to DMSO treated cells and graphed to give dose response curves. IC50 values for each treatment were calculated using Graph-Pad Prism 8.0 Software.

[3] = Cytotoxicity assay (CellTiter-Glo) in HL60 cells; format: cell-based; details: human, 48 hours post drug incubation, cell viability by CellTiter-Glo, triplicate, read-out: Chromenone cytotoxicity IC50, HL60
Protocol: as §1, §2

HL60 cells [4] = details: comparator natural product, other cells 'Not available', read-out: Cytotoxicity IC50, HL60 (natural product comparator); cited from earlier work
L5178Y cells [5] = details: read-out: Cytotoxicity IC50, L5178Y (natural product comparator), other cells 'Not available'; cited from earlier work
Jurkat cells [6] = assay: Cytotoxicity assay (CellTiter-Glo) in Jurkat cells; format: cell-based; details: for Cytotoxicity in Jurkat screening (in words): cytotoxicity screening in Jurkat cell lines, FIG. 20
Protocol: as §1, §2

[7] = Cytotoxicity assay (CellTiter-Glo) in L5178Y cells; format: cell-based; details: mouse, 48 hours post drug incubation, cell viability by CellTiter-Glo, triplicate, read-out: Chromenone cytotoxicity IC50, L5178Y
Protocol: as §1, §2

KB cells [8] = details: read-out: Cytotoxicity IC50, KB (natural product comparator), other cells 'Not available'; cited from earlier work
L5178Y cells [9] = assay: Cytotoxicity assay (CellTiter-Glo) in L5178Y cells; format: cell-based; details: 48 hours post drug incubation, cell viability by CellTiter-Glo, triplicate
Protocol: as §1, §2

HL60 cells [10] = assay: Cytotoxicity assay (CellTiter-Glo) in HL60 cells; format: cell-based; details: 48 hours post drug incubation, cell viability by CellTiter-Glo, triplicate
Protocol: as §1, §2

KB cells [11] = assay: Cytotoxicity assay (CellTiter-Glo) in KB cells; format: cell-based; details: 48 hours post drug incubation, cell viability by CellTiter-Glo, triplicate, read-out: Chromenone cytotoxicity IC50, KB
Protocol: as §1, §3

Jurkat cells [12] = details: comparator natural product, other cells 'Not available', read-out: Cytotoxicity IC50, Jurkat (natural product comparator); cited from earlier work

## COc1ccc(-c2ccc(OC)c3c(=O)c(C(C)=O)c([C@@H](OC(C)=O)C(C)C)oc23)c2oc([C@@H](OC(C)=O)C(C)C)c(C(C)=O)c(=O)c12 [Compound 48c]
[1]
  IC50 at 48 h: > 50 µM
[2]
  IC50 at 48 h: > 50 µM
[3]
  IC50 at 48 h: > 50 µM

## Versixanthone F
HL60 cells [4]
  IC50: 1 µM

## Dicerandrol C
L5178Y cells [5]
  IC50: 10 µM

## COC(=O)C(C)(C)c1cc(=O)c2c(OC)c(-c3ccc4oc(C(C)(C)C(=O)OC)cc(=O)c4c3OC)ccc2o1 [Compound 35c, Dimethyl 2,2′-(5,5′-Dimethoxy-4,4′-dioxo-4H,4′H-[6,6′-bichromene]-2,2′-diyl)bis(2-methylpropanoate)]
Jurkat cells [6]
  Cytotoxicity in Jurkat screening (in words): highest levels of cytotoxicity
[2]
  IC50 at 48 h: 41 ± 1.1 µM

## O=c1cc(C2CCCO2)oc2c(-c3ccc(O)c4c(=O)cc(C5CCCO5)oc34)ccc(O)c12 (stereo not shown) [Compound 28e, 5,5′-Dihydroxy-2,2′-bis(tetrahydrofuran-2-yl)-4H,4′H-[8,8′-bichromene]-4,4′-dione]
[7]
  IC50 at 48 h: > 50 µM
Jurkat cells [6]
  Cytotoxicity in Jurkat screening (in words): highest levels of cytotoxicity
[2]
  IC50 at 48 h: > 50 µM
[3]
  IC50 at 48 h: > 50 µM

## Phomoxanthone B
KB cells [8]
  IC50: 4.1 µM

## COC(=O)C(C)(C)c1cc(=O)c2c(O)ccc(-c3ccc(O)c4c(=O)cc(C(C)(C)C(=O)OC)oc34)c2o1 [Compound 28c, Dimethyl 2,2′-(5,5′-Dihydroxy-4,4′-dioxo-4H,4′H-[8,8′-bichromene]-2,2′-diyl)bis(2-methylpropanoate)]
L5178Y cells [9]
  Chromenone cytotoxicity IC50, L5178Y: low micromolar range
[7]
  IC50 at 48 h: 23 µM
Jurkat cells [6]
  Cytotoxicity in Jurkat screening (in words): highest levels of cytotoxicity
[2]
  IC50 at 48 h: > 50 µM
HL60 cells [10]
  Chromenone cytotoxicity IC50, HL60: low micromolar range

## COC(=O)C(C)(C)c1cc(=O)c2c(OC)ccc(-c3ccc(OC)c4c(=O)cc(C(C)(C)C(=O)OC)oc34)c2o1 [Compound 39c, Dimethyl 2,2′-(5,5′-Dimethoxy-4,4′-dioxo-4H,4′H-[8,8′-bichromene]-2,2′-diyl)bis(2-methylpropanoate)]
L5178Y cells [9]
  Chromenone cytotoxicity IC50, L5178Y: low micromolar range
Jurkat cells [6]
  Cytotoxicity in Jurkat screening (in words): highest levels of cytotoxicity
HL60 cells [10]
  Chromenone cytotoxicity IC50, HL60: low micromolar range
[3]
  IC50 at 48 h: 24 µM

## 3-Acetyl-5-hydroxy-2-methyl-4H-1-benzopyran-4-one Dimer [Compound 43]
L5178Y cells [9]; read-out: Chromenone cytotoxicity IC50, L5178Y
  IC50: > 50 µM
Jurkat cells [6]; Jurkat cells, 48 hours post drug incubation, cell viability by CellTiter-Glo, triplicate, read-out: Chromenone cytotoxicity IC50, Jurkat
  IC50: 39 ± 1.1 µM
KB cells [11]
  IC50: > 50 µM
HL60 cells [10]; read-out: Chromenone cytotoxicity IC50, HL60
  IC50: > 50 µM

## COc1ccc(-c2ccc(OC)c3c(=O)c(C(C)=O)c(C)oc23)c2oc(C)c(C(C)=O)c(=O)c12 [Compound 42, 3,3′-Diacetyl-5,5′-dimethoxy-2,2′-dimethyl-4H,4′H-[8,8′-bichromene]-4,4′-dione]
[7]
  IC50 at 48 h: > 50 µM
[1]
  IC50 at 48 h: > 50 µM
[2]
  IC50 at 48 h: > 50 µM

## Phomoxanthone A
L5178Y cells [5]
  IC50: 0.3 µM
KB cells [8]
  IC50: 0.99 µM
Jurkat cells [12]
  IC50: 0.5 µM
